Earlier results in patent publication US20240335465A1 (University of Virginia Patent Foundation, priority 2021, published 2024).

System: cGAS
Conditions: Liu et al., 2018; cited from earlier work

SMILES: O=C(c1cc(Cc2n[nH]c(=O)c3ccccc23)ccc1F)N1CCN(C(=O)C2CC2)CC1 [olaparib]
- cGAS-PARP1 interactions and DNA damage-induced nuclear cGAS translocation: blocked
